Assay results from patent US5981520A, “Piperazino derivatives as neurokinin antagonists” (Schering Corporation, priority 1998, dated 1999).

Assays:
[1] = target: T1, NK3 (Homo sapiens, UniProt P29371); assay: NK3 radioligand receptor binding assay as described in the literature; settings: racemic compounds except specifically defined enantiomers
T1 sequence (P29371 1-465): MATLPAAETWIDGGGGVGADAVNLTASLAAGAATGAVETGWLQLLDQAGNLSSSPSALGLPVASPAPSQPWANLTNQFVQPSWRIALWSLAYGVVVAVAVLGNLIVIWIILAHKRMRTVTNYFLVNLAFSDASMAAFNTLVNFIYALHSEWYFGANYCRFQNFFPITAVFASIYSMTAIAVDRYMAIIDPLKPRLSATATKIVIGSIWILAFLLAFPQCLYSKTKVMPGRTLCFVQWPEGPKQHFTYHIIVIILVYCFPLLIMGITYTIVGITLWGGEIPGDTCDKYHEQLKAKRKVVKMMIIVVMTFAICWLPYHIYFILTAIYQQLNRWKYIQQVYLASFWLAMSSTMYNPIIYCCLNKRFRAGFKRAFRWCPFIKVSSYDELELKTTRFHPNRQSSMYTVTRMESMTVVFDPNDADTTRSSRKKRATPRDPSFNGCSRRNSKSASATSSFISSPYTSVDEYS

[2] = target: T2, human neurokinin 2 (NK2) receptor (Homo sapiens, UniProt P21452); assay: Neurokinin receptor binding assay, NK2 ([3H]-Neurokinin A, CHO membranes); settings: for Ki: racemic compounds except specifically defined enantiomers
T2 construct: expressed in transfected cells; host or cells: Chinese Hamster ovary (CHO) cells
T2 sequence (P21452 1-398): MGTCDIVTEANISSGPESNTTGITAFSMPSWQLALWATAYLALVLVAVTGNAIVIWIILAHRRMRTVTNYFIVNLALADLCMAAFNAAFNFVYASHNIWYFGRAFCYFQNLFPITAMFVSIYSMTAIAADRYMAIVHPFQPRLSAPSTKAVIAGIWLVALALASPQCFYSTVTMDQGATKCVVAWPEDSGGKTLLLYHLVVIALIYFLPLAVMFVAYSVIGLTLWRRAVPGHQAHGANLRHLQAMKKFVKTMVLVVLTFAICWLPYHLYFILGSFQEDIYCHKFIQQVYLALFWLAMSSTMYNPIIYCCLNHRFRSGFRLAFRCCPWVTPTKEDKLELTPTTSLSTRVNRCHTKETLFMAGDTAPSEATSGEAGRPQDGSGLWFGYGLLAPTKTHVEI
Protocol: (§1) Chinese Hamster ovary (CHO) cells transfected with the coding regions for the human neurokinin 1 (NK1) of the human neurokinin 2 (NK2) receptors are grown in Dulbecco's minimal essential medium supplemented with 10% fetal calf serum, 0.1 mM non-essential amino acids, 2 mM glutamine, 100 units/ml of penicillin and streptomycin, and 0.8 mg of G418/ml at 37° C. in a humidified atmosphere containing 5% CO2.
(§2) Cells are harvested by centrifugation and washed in RPMI media at […] for 5 minutes. The pellet is resuspended inTris-HCl (pH7.4) containing 1 uM phosphoramidon and 4 ug/ml of chymostatin at a cell density of 30×10^6 cells/ml. The suspension is then homogenized in a Brinkman Polytron (setting 5) for 30-45 seconds. The homogenate is centrifuged at 800×g for 5 min at 4° C. to collect unbroken cells and nuclei. The supematant is centrifuged in a Sorvall RC5C at 19,000 rpm ([…]) for 30 min at 4° C. The pellet is resuspended, an aliquot is removed for a protein determination (BCA) and washed again. The resulting pellet is stored at -80° C.
(§3) Binding is initiated by the addition of 100 μl of membrane (10-20 μg) containing the human NK-1 or NK-2 receptor in a final volume of 200 μl. After 40 minutes at room temperature, the reaction is stopped by rapid filtration onto Whatman GF/C filters which have been presoaked in 0.3% polyethylenimine. Filters are washed 2 times with 3 ml of 50 mM Tris-HCl (pH7.4).

[3] = target: T3, human neurokinin 1 (NK1) receptor (Homo sapiens, UniProt P25103); assay: Neurokinin receptor binding assay, NK1 ([3H]-Substance P, CHO membranes); settings: for Ki: racemic compounds except specifically defined enantiomers
T3 construct: expressed in transfected cells; host or cells: Chinese Hamster ovary (CHO) cells
Protocol: as §1, §2, §3

T3 sequence (P25103 whole entry): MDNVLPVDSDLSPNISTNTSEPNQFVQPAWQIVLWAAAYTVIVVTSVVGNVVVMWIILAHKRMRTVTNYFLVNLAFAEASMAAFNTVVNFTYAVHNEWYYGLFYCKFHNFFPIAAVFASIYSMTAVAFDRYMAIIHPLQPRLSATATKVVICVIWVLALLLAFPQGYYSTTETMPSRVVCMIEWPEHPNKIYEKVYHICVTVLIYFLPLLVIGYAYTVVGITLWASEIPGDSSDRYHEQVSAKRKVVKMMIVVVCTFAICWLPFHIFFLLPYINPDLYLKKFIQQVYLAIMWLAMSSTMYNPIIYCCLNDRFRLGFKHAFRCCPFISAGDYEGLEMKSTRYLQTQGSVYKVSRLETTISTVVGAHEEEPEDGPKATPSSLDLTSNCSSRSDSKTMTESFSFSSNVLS

Ki [1]	Ki [2]	Ki [3]	inhibition at 1 µM [2]	inhibition at 1 µM [3]	SMILES
0.433 µM					O=C(c1cc(C(F)(F)F)cc(C(F)(F)F)c1)N1CCN(C(=O)CNC2CCN(Cc3ccccc3)CC2)C(c2ccc(Cl)c(Cl)c2)C1 (stereo not drawn)
	0.048 µM	0.0025 µM			COc1ccc(C2CN(C(=O)c3cc(C(F)(F)F)cc(C(F)(F)F)c3)CCN2C(=O)CNC2CCN(Cc3ccccc3)CC2)cc1 (stereo not drawn)
	0.093 µM	0.00058 µM			Cc1cc(C)cc(C(=O)N2CCN(C(=O)C[N+](C)(C)C3CCN(Cc4ccccc4)CC3)C(c3ccc(Cl)c(Cl)c3)C2)c1 (stereo not drawn)
			22%	14%	O=C(c1cc(O)cc(O)c1)N1CCN(C(=O)CNC2CCN(Cc3ccccc3)CC2)C(c2ccc(Cl)c(Cl)c2)C1 (stereo not drawn)
	0.0034 µM	0.093 µM			O=C(c1ccccc1)N1CCN(C(=O)CNC2CCN(Cc3ccccc3)CC2)C(c2ccc(Cl)c(Cl)c2)C1 (stereo not drawn)
	0.187 µM	0.117 µM			O=C(C1c2ccccc2Oc2ccccc21)N1CCN(C(=O)CNC2CCN(Cc3ccccc3)CC2)C(c2ccc(Cl)c(Cl)c2)C1 (stereo not drawn)
		0.074 µM	7%		CN(CC(=O)N1CCN(Cc2cc(C(F)(F)F)cc(C(F)(F)F)c2)CC1c1ccc(Cl)c(Cl)c1)C1CCN(Cc2ccccc2)CC1 (stereo not drawn)
	0.068 µM	0.063 µM			CC(C)(C)c1cc(C(=O)N2CCN(C(=O)CNC3CCN(Cc4ccccc4)CC3)C(c3ccc(Cl)c(Cl)c3)C2)cc(C(C)(C)C)c1 (stereo not drawn)
